{"source": "patent US20020143062A1", "about": "“Method to incorporate N-(4-hydroxyphenyl) retinamide in liposomes” (Board of Regents, The University of Texas System, priority 2000, published 2002)", "key": {"[1]": {"details": "cited from earlier work"}, "[2]": {"details": "cited from earlier work", "remark": "listed apart in the source"}, "ER-positive MCF-7 cells [3]": {"test_system": "ER-positive MCF-7 cells", "assay": "NO production, nitrite assay (Tables 5 and 7)", "assay_type": "cell-based", "details": "for increase of iNOS production of NO in the presence of cyclosporin A: both ER positive and ER negative breast cancer cells (Tables 7, 8)", "description": "(§1) Nitric oxide (NO), an important biological second messenger, is known to induce growth inhibition and apoptosis in cells. Nitric oxide (NO) is biosynthesized by isoenzymes called nitric oxide synthases. One such isoenzyme, inducible NOS (iNOS), is present only after cytokine induction, such as interferon-γ (IFN-γ). […] Here, the ability of liposomal 4-HPR and IFN-γ to induce NO production and growth inhibition in breast cancer positive (Table 5) and breast cancer negative (Table 6) cells is examined by nitrite assays and growth inhibition assays, as known to the skilled artisan.\n(§2) It is also known to those skilled in the art that nitric oxide (NO) is a biologic mediator derived from the amino acid L-arginine. A family of enzymes, known as nitric oxide synthase (NOS), act upon L-arginine to oxidize one of the guanidino nitrogens to nitric oxide while citrulline is formed from the remainder of the L-arginine molecule.\n(§3) Liposomal 4-HPR in combination with cyclosporin A, increased iNOS production of NO in breast cancer cells (Table 3-5). […] Furthermore, an increase in the production of NO in these cells was not indicated with other retinoids such as CD437 and ATRA."}, "ER-positive MCF-7 cells [4]": {"test_system": "ER-positive MCF-7 cells", "assay": "Growth inhibition, cell count (Table 5)", "assay_type": "cell-based", "details": "alone or with 4HPR 1 μM as labelled, 5 days", "description": "as §1"}, "ER-positive MCF-7 cells [5]": {"test_system": "ER-positive MCF-7 cells", "assay": "NO production, nitrite assay (Table 6)", "assay_type": "cell-based", "details": "alone or with 4HPR 1 μM as labelled, 5 days", "description": "as §1, §2"}, "ER-positive MCF-7 cells [6]": {"test_system": "ER-positive MCF-7 cells", "assay": "Growth inhibition, cell count (Table 6)", "assay_type": "cell-based", "details": "alone or with 4HPR 1 μM as labelled, 5 days", "description": "Nitric oxide (NO), an important biological second messenger, is known to induce growth inhibition and apoptosis in cells. Nitric oxide (NO) is biosynthesized by isoenzymes called nitric oxide synthases. […]"}, "[7]": {"test_system": "ER-negative MDA-MB-231 cells", "assay": "NO production, nitrite (Table 8)", "assay_type": "cell-based", "details": "cyclosporin A 4 μg/ml; CD437 2 μM; ATRA 1 μM; alone or combined as labelled; 3 days", "description": "as §3"}, "MCF-7/WT": {"test_system": "MCF-7/WT", "assay": "Cellular proliferation assay, IC50 of retinoids with/without cyclosporin A", "assay_type": "cell-based"}, "MCF-7/ADR": {"test_system": "MCF-7/ADR", "assay": "Cellular proliferation assay, IC50 of retinoids with/without cyclosporin A", "assay_type": "cell-based"}, "[8]": {"details": "cited from earlier work", "remark": "listed apart in the source"}, "[9]": {"details": "cyclosporin A 4 μg/ml, CD437 2 μM, ATRA 1 μM, alone or combined as labelled, 3 days"}, "[10]": {"details": "without cyclosporin A, read-out: IC50 Without CsA"}, "[11]": {"details": "single oral doses of about 0.6 mg/kg to about […]"}}, "note": "Where a name gives a salt, the structure may show the parent alone. Read-outs that look alike come from different tables or passages of the source. Starred links: 1 amine or outer side, 2 acyl side, 3 side chain; linkers in the order of their positions; H or OH if unused. Positions of bridges follow the written chain, without caps; N, C: chain ends. Non-standard residues stand in square brackets, D forms with d. Residues, ends and D or L forms follow the SMILES beside them. Chains are numbered I, II in the order given. Actinocin(9to1) = Cc1c2oc3c(C)ccc(C(=O)[*:1])c3nc-2c(C(=O)[*:2])c(N)c1=O; NMeV = CN[C@H](C(=O)O)C(C)C; Sar = CNCC(=O)O"}
{"compound": "N[C@@H](Cc1ccc(N(CCCl)CCCl)cc1)C(=O)O", "note": "[Melphalan, 4-[bis(2-chloroethyl)amino]-L-phenylalanine]", "values": [{"measurement": "proportion of patients with a favorable response", "setting": "[1]; multiple myeloma, oral administration", "value": "about one third to one half"}]}
{"compound": "COc1cccc2c1C(=O)c1c(O)c3c(c(O)c1C2=O)C[C@@](O)([C@H](C)O)C[C@@H]3O[C@H]1C[C@H](N)[C@H](O)[C@H](C)O1", "note": "[daunorubicinol]", "values": [{"measurement": "half-life of active metabolite", "setting": "[2]; in vivo", "value": "about 27 hours"}]}
{"compound": "CS(=O)(=O)OCCCCOS(C)(=O)=O", "note": "[Busulfan, 1,4-butanediol dimethanesulfonate]", "values": [{"measurement": "adults obtaining hematologic remission with regression or stabilization of organomegaly", "setting": "[1]; previously untreated chronic myelogenous leukemia", "value": "Approximately 90%"}]}
{"compound": "IFN-γ: Interferon gamma, cytokine that induces iNOS", "values": [{"measurement": "Nitrite (NO production)", "setting": "ER-positive MCF-7 cells [3]; IFN-γ 25 U/ml, alone or with 4HPR 1 μM as labelled, 5 days", "value": "7.1 ± 3.3 μM Nitrite /1 × 10^6 cells"}, {"measurement": "Nitrite (NO production)", "setting": "ER-positive MCF-7 cells [3]; IFN-γ 50 U/ml, alone or with 4HPR 1 μM as labelled, 5 days", "value": "6.6 ± 0.5 μM Nitrite /1 × 10^6 cells"}, {"measurement": "Cell count", "setting": "ER-positive MCF-7 cells [4]; IFN-γ 25 U/ml", "value": "254 × 10^4"}, {"measurement": "Cell count", "setting": "ER-positive MCF-7 cells [4]; IFN-γ 50 U/ml", "value": "258 × 10^4"}, {"measurement": "Nitrite (NO production)", "setting": "ER-positive MCF-7 cells [5]; IFN-γ 25 U/ml", "value": "28.3 ± 4.1 μM Nitrite /1 × 10^6 cells"}, {"measurement": "Nitrite (NO production)", "setting": "ER-positive MCF-7 cells [5]; IFN-γ 50 U/ml", "value": "24.4 ± 0.4 μM Nitrite /1 × 10^6 cells"}, {"measurement": "Cell count", "setting": "ER-positive MCF-7 cells [6]; IFN-γ 25 U/ml", "value": "51 × 10^4"}, {"measurement": "Cell count", "setting": "ER-positive MCF-7 cells [6]; IFN-γ 50 U/ml", "value": "52 × 10^4"}]}
{"compound": "N.N.[Cl][Pt][Cl]", "note": "[Cisplatin]", "values": [{"measurement": "oral / gastrointestinal absorption", "setting": "[2]; in vivo", "value": "not absorbed orally"}]}
{"compound": "O=C(O)c1ccc2cc(-c3ccc(O)c(C45CC6CC(CC(C6)C4)C5)c3)ccc2c1", "note": "[CD437]", "values": [{"measurement": "increase of iNOS production of NO in the presence of cyclosporin A", "setting": "ER-positive MCF-7 cells [3]", "value": "not indicated"}, {"measurement": "Nitrite (NO production)", "setting": "ER-positive MCF-7 cells [3]; [9]", "value": "71.8 μM Nitrite /1 × 10^6 cells"}, {"measurement": "Nitrite (NO production)", "setting": "[7]", "value": "59.3 μM Nitrite /1 × 10^6 cells"}, {"measurement": "IC50", "setting": "MCF-7/WT; cotreatment with CsA, concentration not marked, read-out: IC50 With CsA", "value": 358, "unit": "nM"}, {"measurement": "IC50", "setting": "MCF-7/WT; [10]", "value": 287, "unit": "nM"}, {"measurement": "IC50", "setting": "MCF-7/ADR; cotreatment with CsA 2 μg/ml, read-out: IC50 With CsA", "value": 197000, "unit": "nM"}, {"measurement": "IC50", "setting": "MCF-7/ADR; cotreatment with CsA 4 μg/ml, read-out: IC50 With CsA", "value": 1190, "unit": "nM"}, {"measurement": "IC50", "setting": "MCF-7/ADR; [10]", "value": 1580, "unit": "nM"}]}
{"compound": "COc1cccc2c1C(=O)c1c(O)c3c(c(O)c1C2=O)C[C@@](O)(C(=O)CO)C[C@@H]3O[C@H]1C[C@H](N)[C@H](O)[C@H](C)O1", "note": "[Doxorubicin, 5,12-Naphthacenedione, (8s-cis)-10-[(3-amino-2,3,6-trideoxy-a-L-lyxo-hexopyranosyl)oxy]-7,8,9,1 0-tetrahydro-6,8,11-trihydroxy-8-(hydroxyacetyl)-1-methoxy-hydrochloride]", "values": [{"measurement": "oral / gastrointestinal absorption", "setting": "[2]; in vivo", "value": "absorbed poorly"}, {"measurement": "elimination half-life", "setting": "[2]; in vivo", "value": "about 30 hours"}]}
{"compound": "CC[C@]1(O)C[C@@H]2CN(CCc3c([nH]c4ccccc34)[C@@](C(=O)OC)(c3cc4c(cc3OC)N(C)[C@H]3[C@@](O)(C(=O)OC)[C@H](OC(C)=O)[C@]5(CC)C=CCN6CC[C@]43[C@@H]65)C2)C1", "note": "[vinblastine]", "values": [{"measurement": "administered dose recovered in the feces after biliary excretion", "setting": "[2]; in vivo", "value": "about 10%"}, {"measurement": "half-life of disappearance from plasma after distribution (first)", "setting": "[2]; intravenous injection", "value": "approximately 1 hours"}, {"measurement": "half-life of disappearance from plasma after distribution (second)", "setting": "[2]; intravenous injection", "value": "~72000", "unit": "s"}]}
{"compound": "COc1cccc2c1C(=O)c1c(O)c3c(c(O)c1C2=O)C[C@@](O)(C(C)=O)C[C@@H]3O[C@H]1C[C@H](N)[C@H](O)[C@H](C)O1", "note": "[Daunorubicin, 5,12-Naphthacenedione, (8S-cis)-8-acetyl-10-[(3-amino-2,3,6-trideoxy-a-L-lyxo-hexanopyranosyl)oxy]-7,8,9,10-tetrahydro-6,8,11-trihydroxy-10-methoxy-, hydrochloride]", "values": [{"measurement": "oral / gastrointestinal absorption", "setting": "[2]; in vivo", "value": "Oral absorption is poor"}, {"measurement": "elimination half-life", "setting": "[2]; in vivo", "value": "about 19 hours"}, {"measurement": "secreted into the bile", "setting": "[2]; in vivo", "value": "about 40%"}]}
{"compound": "CC1=C(/C=C/C(C)=C/C=C/C(C)=C/C(=O)O)C(C)(C)CCC1", "note": "[ATRA, all-trans-retinoic acid]", "values": [{"measurement": "increase of iNOS production of NO in the presence of cyclosporin A", "setting": "ER-positive MCF-7 cells [3]", "value": "not indicated"}, {"measurement": "Nitrite (NO production)", "setting": "ER-positive MCF-7 cells [3]; [9]", "value": "15.1 μM Nitrite /1 × 10^6 cells"}, {"measurement": "Nitrite (NO production)", "setting": "[7]", "value": "7.1 μM Nitrite /1 × 10^6 cells"}, {"measurement": "IC50", "setting": "MCF-7/WT; Homo sapiens, MCF7, cotreatment with CsA, concentration not marked, read-out: IC50 With CsA", "value": 287, "unit": "nM"}, {"measurement": "IC50", "setting": "MCF-7/WT; Homo sapiens, MCF7, without cyclosporin A, read-out: IC50 Without CsA", "value": 288, "unit": "nM"}]}
{"compound": "O=C(O)CCCc1ccc(N(CCCl)CCCl)cc1", "note": "[Chlorambucil, 4-[bis(2-chlorethyl)amino] benzenebutanoic acid]", "values": [{"measurement": "oral / gastrointestinal absorption", "setting": "[2]; in vivo", "value": "rapidly and completely absorbed"}, {"measurement": "terminal half-life of the parent drug", "setting": "[2]; [11]", "value": "about 1.5 hours"}, {"measurement": "time to peak plasma chlorambucil levels", "setting": "[2]; [11]", "value": "within one hour"}]}
{"compound": "Cc1c2oc3c(C)ccc(C(=O)N[C@@H]4C(=O)N[C@H](C(C)C)C(=O)N5CCC[C@H]5C(=O)N(C)CC(=O)N(C)[C@@H](C(C)C)C(=O)O[C@@H]4C)c3nc-2c(C(=O)N[C@@H]2C(=O)N[C@H](C(C)C)C(=O)N3CCC[C@H]3C(=O)N(C)CC(=O)N(C)[C@@H](C(C)C)C(=O)O[C@@H]2C)c(N)c1=O", "note": "[Actinomycin D] (I: T[dV]P[Sar][NMeV] / II: T[dV]P[Sar][NMeV]; ester I:1-I:C, II:1-II:C; linker I:N-II:N via Actinocin(9to1))", "values": [{"measurement": "dose excreted intact into the bile", "setting": "[2]; in vivo", "value": "Half of the dose"}, {"measurement": "dose excreted intact into the urine", "setting": "[2]; in vivo", "value": 10, "unit": "%"}, {"measurement": "half-life", "setting": "[2]; in vivo", "value": "about 36 hours"}, {"measurement": "passage of the blood-brain barrier", "setting": "[2]; in vivo", "value": "does not pass the blood-brain barrier"}]}
{"compound": "O=NN(CCCl)C(=O)NC1CCCCC1", "note": "[Lomustine, 1-(2-chloro-ethyl)-3-cyclohexyl-l nitrosourea]", "values": [{"measurement": "radioactivity excreted in the form of degradation products within 24 hours", "setting": "[2]; oral radioactive lomustine, about 30 mg/m^2 to 100 mg/m^2", "value": "about half"}, {"measurement": "serum half-life of the metabolites", "setting": "[2]; oral radioactive lomustine", "value": "about 16 hours to about 2 days"}]}
{"compound": "CC[C@]1(O)C[C@H]2CN(CCc3c([nH]c4ccccc34)[C@@](C(=O)OC)(c3cc4c(cc3OC)N(C=O)[C@H]3[C@@](O)(C(=O)OC)[C@H](OC(C)=O)[C@]5(CC)C=CCN6CC[C@]43[C@@H]65)C2)C1", "note": "[vincristine]", "values": [{"measurement": "terminal half-life (clearance from plasma)", "setting": "[2]; in vivo", "value": "about 24 hours"}]}
{"compound": "CO[C@@]12[C@H](COC(N)=O)C3=C(C(=O)C(C)=C(N)C3=O)N1C[C@@H]1N[C@@H]12", "note": "[Mitomycin]", "values": [{"measurement": "time required to reduce the serum concentration by about 50%", "setting": "[8]; 30 mg bolus injection", "value": 17, "unit": "min"}, {"measurement": "dose excreted unchanged in the urine", "setting": "[8]; in vivo", "value": "Approximately 10%"}]}
